System: PANC-1 complex spheroid growth, percent test/control
Assay: Anticancer human tumor PANC-1 cell line growth inhibition [Asc];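 also: spheroids exposed to agents for 7 days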;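 as to viability, T/C: percent viability relative to DMSO vehicle wells taken as 100%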
Details: for IC50: curve of first compound; for viability, T/C: stronger effect = lower value
How it was run: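 Concentration series start at each agent's clinical Cmax, or at 10 microM when none is established, and drop in half-log steps; agents are applied alone or together to complex spheroids built with HUVEC and hMSC.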

Compound: Cc1nc(N2CCC3(CC2)COC(C)C3N)c(CO)nc1Sc1ccnc(N)c1Cl (centres undefined) + CCN1C(C(=O)NC23CCC(C(=O)O)(CC2)CC3)C(c2cccc(Cl)c2F)C2(C(=O)Nc3cc(Cl)ccc32)C12CCCCC2
- IC50 (second compound 0.00949 µM): > 3 µM
- IC50 (second compound 0.03 µM): > 3 µM
- IC50 (second compound 0.0949 µM): > 3 µM
- IC50 (second compound 0.3 µM): > 3 µM
- IC50 (second compound 0.949 µM): > 3 µM
- IC50 (second compound 3 µM): > 3 µM
- viability, T/C (second compound 0.00949 µM, first compound 0.00949 µM): 109%
- viability, T/C (second compound 0.00949 µM, first compound 0.03 µM): 95.8%
- viability, T/C (second compound 0.00949 µM, first compound 0.0949 µM): 92.8%
- viability, T/C (second compound 0.00949 µM, first compound 0.3 µM): 87.7%
- viability, T/C (second compound 0.00949 µM, first compound 0.949 µM): 92.1%
- viability, T/C (second compound 0.00949 µM, first compound 3 µM): 92.6%
- viability, T/C (second compound 0.03 µM, first compound 0.00949 µM): 102%
- viability, T/C (second compound 0.03 µM, first compound 0.03 µM): 101%
- viability, T/C (second compound 0.03 µM, first compound 0.0949 µM): 98.7%
- viability, T/C (second compound 0.03 µM, first compound 0.3 µM): 89.5%
- viability, T/C (second compound 0.03 µM, first compound 0.949 µM): 90%
- viability, T/C (second compound 0.03 µM, first compound 3 µM): 94.1%
- viability, T/C (second compound 0.0949 µM, first compound 0.00949 µM): 103%
- viability, T/C (second compound 0.0949 µM, first compound 0.03 µM): 102%
- viability, T/C (second compound 0.0949 µM, first compound 0.0949 µM): 98.6%
- viability, T/C (second compound 0.0949 µM, first compound 0.3 µM): 92%
- viability, T/C (second compound 0.0949 µM, first compound 0.949 µM): 93.7%
- viability, T/C (second compound 0.0949 µM, first compound 3 µM): 91.3%
- viability, T/C (second compound 0.3 µM, first compound 0.00949 µM): 98.7%
- viability, T/C (second compound 0.3 µM, first compound 0.03 µM): 98.1%
- viability, T/C (second compound 0.3 µM, first compound 0.0949 µM): 94.5%
- viability, T/C (second compound 0.3 µM, first compound 0.3 µM): 96.7%
- viability, T/C (second compound 0.3 µM, first compound 0.949 µM): 106%
- viability, T/C (second compound 0.3 µM, first compound 3 µM): 99.2%
- viability, T/C (second compound 0.949 µM, first compound 0.00949 µM): 113%
- viability, T/C (second compound 0.949 µM, first compound 0.03 µM): 91.9%
- viability, T/C (second compound 0.949 µM, first compound 0.0949 µM): 108%
- viability, T/C (second compound 0.949 µM, first compound 0.3 µM): 101%
- viability, T/C (second compound 0.949 µM, first compound 0.949 µM): 108%
- viability, T/C (second compound 0.949 µM, first compound 3 µM): 92.9%
- viability, T/C (second compound 3 µM, first compound 0.00949 µM): 115%
- viability, T/C (second compound 3 µM, first compound 0.03 µM): 116%
- viability, T/C (second compound 3 µM, first compound 0.0949 µM): 103%
- viability, T/C (second compound 3 µM, first compound 0.3 µM): 108%
- viability, T/C (second compound 3 µM, first compound 0.949 µM): 110%
- viability, T/C (second compound 3 µM, first compound 3 µM): 103%

Compound: O=C(c1cc(Cc2n[nH]c(=O)c3ccccc23)ccc1F)N1CCN(C(=O)C2CC2)CC1 + CNC(C)C(=O)NC1CN(S(=O)(=O)c2cccc(S(=O)(=O)N3CCC4CCC(C(=O)NC(c5ccccc5)c5ccccc5)N4C(=O)C(NC(=O)C(C)NC)C3)c2)CCC2CCC(C(=O)NC(c3ccccc3)c3ccccc3)N2C1=O
- IC50 (second compound 0.00316 µM): > 10 µM
- IC50 (second compound 0.01 µM): > 10 µM
- IC50 (second compound 0.0316 µM): > 10 µM
- IC50 (second compound 0.1 µM): > 10 µM
- IC50 (second compound 0.316 µM): > 10 µM
- IC50 (second compound 1 µM): > 10 µM
- viability, T/C (second compound 0.00316 µM, first compound 0.0316 µM): 132%
- viability, T/C (second compound 0.00316 µM, first compound 0.1 µM): 111%
- viability, T/C (second compound 0.00316 µM, first compound 0.316 µM): 134%
- viability, T/C (second compound 0.00316 µM, first compound 1 µM): 133%
- viability, T/C (second compound 0.00316 µM, first compound 3.16 µM): 97.3%
- viability, T/C (second compound 0.00316 µM, first compound 10 µM): 63.4%
- viability, T/C (second compound 0.01 µM, first compound 0.0316 µM): 109%
- viability, T/C (second compound 0.01 µM, first compound 0.1 µM): 100%
- viability, T/C (second compound 0.01 µM, first compound 0.316 µM): 105%
- viability, T/C (second compound 0.01 µM, first compound 1 µM): 104%
- viability, T/C (second compound 0.01 µM, first compound 3.16 µM): 103%
- viability, T/C (second compound 0.01 µM, first compound 10 µM): 98.4%
- viability, T/C (second compound 0.0316 µM, first compound 0.0316 µM): 107%
- viability, T/C (second compound 0.0316 µM, first compound 0.1 µM): 96.2%
- viability, T/C (second compound 0.0316 µM, first compound 0.316 µM): 96.7%
- viability, T/C (second compound 0.0316 µM, first compound 1 µM): 110%
- viability, T/C (second compound 0.0316 µM, first compound 3.16 µM): 112%
- viability, T/C (second compound 0.0316 µM, first compound 10 µM): 91.2%
- viability, T/C (second compound 0.1 µM, first compound 0.0316 µM): 91.2%
- viability, T/C (second compound 0.1 µM, first compound 0.1 µM): 100%
- viability, T/C (second compound 0.1 µM, first compound 0.316 µM): 92.3%
- viability, T/C (second compound 0.1 µM, first compound 1 µM): 99.1%
- viability, T/C (second compound 0.1 µM, first compound 3.16 µM): 101%
- viability, T/C (second compound 0.1 µM, first compound 10 µM): 81.8%
- viability, T/C (second compound 0.316 µM, first compound 0.0316 µM): 103%
- viability, T/C (second compound 0.316 µM, first compound 0.1 µM): 103%
- viability, T/C (second compound 0.316 µM, first compound 0.316 µM): 89.2%
- viability, T/C (second compound 0.316 µM, first compound 1 µM): 95.4%
- viability, T/C (second compound 0.316 µM, first compound 3.16 µM): 99.2%
- viability, T/C (second compound 0.316 µM, first compound 10 µM): 93.3%
- viability, T/C (second compound 1 µM, first compound 0.0316 µM): 93.7%
- viability, T/C (second compound 1 µM, first compound 0.1 µM): 106%
- viability, T/C (second compound 1 µM, first compound 0.316 µM): 87.8%
- viability, T/C (second compound 1 µM, first compound 1 µM): 93.2%
- viability, T/C (second compound 1 µM, first compound 3.16 µM): 89.9%
- viability, T/C (second compound 1 µM, first compound 10 µM): 85.2%
